Patent publication US8530457B2, “Method for the treatment of lymphangioleiomyomatosis (LAM)” (Fox Chase Cancer Center, priority 2008, dated 2013)
Entries after “also recorded” stand apart in the source; their conditions may differ.

Tests used:
C-Raf = experiment: Immunoblot of phosphorylated C-Raf/Raf-1 in ELT3 cells; type: cell-based, rat; settings: E2 stimulation
Method: (§1) ELT-3 cells (Eker rat uterine leiomyoma-derived smooth muscle cells) were cultured in IIA complete medium (DMEM/F12 basal media including 15% FBS, 0.2 μM hydrocortisone, 10 μU/mL vasopressin, 1×FeSO4, 10 ng/mL EGF, 1×ITS, 0.01 nM triiolythryonine, 0.12% sodium bicarbonate, 1× cholesterol and 1× penicillin/streptomycin) supplemented with 15% FBS. Prior to the in vitro experiments, cells were maintained in media supplemented with 10%-charcoal-stripped FBS for three days and then serum starved for 24 hours in serum-free and phenol red-free medium. E2 (10 nM, Sigma, St. Louis, Mo.) or PD98059 (50 μM, Cell Signaling Technology, Danvers, Mass.) was added to the cells as indicated.
(§2) Cells were rinsed once in ice-cold PBS and lysed in PTY buffer (50 mM Hepes, pH 7.5, 50 mM NaCl, 5 mM EDTA, 50 mM NaF, 10 mM Na4P2O7, and 1% Triton 100) supplemented with phosphatase inhibitors. Lysates were resolved by SDS-PAGE electrophoresis and transferred onto Immobilon P membranes (Millipore). Cytoplasmic and nuclear fractions were separated using CellLytic Nuclear Extraction Kit (Sigma) before electrophoresis. […]

ELT3 cells [1] = experiment: Anoikis assay of ELT3 cells on PolyHEMA (caspase-3, DNA fragmentation, Bim, regrowth); type: cell-based, rat
Method: (§3) Cells were rinsed once in ice-cold PBS and lysed in PTY buffer (50 mM Hepes, pH 7.5, 50 mM NaCl, 5 mM EDTA, 50 mM NaF, 10 mM Na4P2O7, and 1% Triton 100) supplemented with phosphatase inhibitors. Lysates were resolved by SDS-PAGE electrophoresis and transferred onto Immobilon P membranes (Millipore). Cytoplasmic and nuclear fractions were separated using CellLytic Nuclear Extraction Kit (Sigma) before electrophoresis. […] Western blots were developed using horseradish peroxidase-conjugated secondary antibodies and ECL chemiluminescence (Amersham Biosciences).
ELT3 cells were cultured with or without 10 nM E2 in serum-free and phenol red-free medium supplemented with 10% charcoal-stripped FBS for 24 hours. […] Cell death as a function of DNA fragmentation was detected using Cell Death Detection ELISA kit (Roche Diagnostics).
(§4) The surviving cells in suspension were plated in triplicate in 24-well plates and allowed to grow adherently for 24 hours. ^3H-thymidine (1 μCi) was added to the media and the cells were incubated at 37° C. for 6 hours, washed with PBS, and lysed in 0.5 mL of 0.5 N NaOH plus 0.5% SDS. ^3H-thymidine incorporation was measured by scintillation counting.

p42/44 MAPK [2] = experiment: Immunoblot of phosphorylated p42/44 MAPK in ELT3 cells; type: cell-based, rat
Method: Prior to the in vitro experiments, cells were maintained in media supplemented with 10%-charcoal-stripped FBS for three days and then serum starved for 24 hours in serum-free and phenol red-free medium. E2 (10 nM, Sigma, St. Louis, Mo.) or PD98059 (50 μM, Cell Signaling Technology, Danvers, Mass.) was added to the cells as indicated.
as §3

p42/44 MAPK [3] = experiment: Phospho-p42/44 MAPK immunostaining of primary xenograft tumors; type: in vivo, mice; settings: placebo 28%
Method: Sections were deparaffinized, incubated overnight with primary antibodies at 4° C. in a humidified chamber and then rinsed and incubated with biotinylated secondary antibodies for 30 minutes at room temperature. Slides were developed using the Broad Spectrum AEC Histostain-Plus (Invitrogen) or Histostain-Plus kit (Invitrogen), and they were counterstained with Gill's hematoxylin.
(§5) All animal work was performed in accordance with a protocol approved by the FCCC Institutional Animal Care and Use Committee. Male CB-17 scid mice, six weeks of age, were purchased from Fox Chase Cancer Center. Female ovariectomized CB17-scid mice, six to eight weeks of age, were purchased from Taconic (Hudson, N.Y.). One week prior to cell injection, 17-beta estradiol or control-placebo pellets (2.5 mg, 90-day release) (Innovative Research America, Sarasota, Fla.) were implanted. For xenograft tumor establishment, subconfluent ELT3 cells were harvested, washed in PBS, and resuspended in 0.2 ml of serum-free medium. Two millions ELT3 cells were injected into both flanks of the mouse subcutaneously. For metastatic and circulating tumor cells assays, 2×10^5 ELT3 or ELT3-Luc cells were resuspended in 0.1 ml PBS and injected into the lateral tail vein of mice. Lung metastases were scored from 3-5 five-micron H&E stained sections of each lobe at 40× magnification by observers blinded to the experimental conditions.

ELT3-luciferase cells = experiment: Lung colonization of i.v. injected ELT3-luciferase cells, bioluminescent imaging; type: in vivo, mice
Method: as §5, with “For metastatic and circulating tumor cells assays, 2×10^5 ELT3 or ELT3-Luc cells were resuspended in 0.1 ml PBS and injected into the lateral tail vein of mice.” left out
One million ELT3 cells were transfected with 3 μg of pCMV-Luc (Invitrogen, Carlsbad, Calif.) using Nucleofection reagent (Amaxa, Gaithersburg, Md.). Cells were selected in G418 for 2 weeks, and G418 resistant clones were isolated and examined for luciferase activity.
Ten minutes prior to imaging, animals were injected with luciferin (Xenogen, Alameda, Calif.) (120 mg/kg, i.p.). Bioluminescent signals were recorded at indicated times post cell injection using Xenogen IVIS System (Xenogen). Total photon flux at the chest regions and from the dissected lungs was analyzed.

ELT3 cells [4] = experiment: Circulating and lung tumor cell DNA by rat-specific real-time PCR; type: in vivo, mice
Method: as §5, with “For metastatic and circulating tumor cells assays, 2×10^5 ELT3 or ELT3-Luc cells were resuspended in 0.1 ml PBS and injected into the lateral tail vein of mice.” left out
Mouse blood (0.5 mL) was collected at indicated times by intraocular bleed, and red blood cells were lysed before DNA extraction. At death, the lungs were dissected and stored at −80° C. for DNA extraction. Rat and mouse DNAs were quantified by using TaqMan-chemistry based real-time PCR assays. […] The primers amplify a LINE repeat element (AC087102). The assay for mouse is for the gene Anf. The sequences (all 5′ to 3′) for the primers and probes are:
PCR master mix from Eurogentec was used for PCR. Primers and probe concentrations were 500 and 100 nM, respectively. Cycling conditions were 95° C., 15 minutes followed by 40 (2-steps) cycles (95° C., 15 sec; 60° C., 60 sec). Reactions were run using an ABI 7900 HT instrument. Each sample was analyzed using two different amounts of input DNA. […] Bioluminescent Reporter Imaging

[5] = tested on: tuberin-deficient ELT3 cells; experiment: Subcutaneous ELT3 xenograft in CB17-scid mice: primary tumors and pulmonary metastases; type: in vivo
Method: as §5
CI-1040 (PD184352) was obtained from Pfizer (Ann Arbor, Mich.) and was prepared in a vehicle of 10% Cremophore EL (Sigma), 10% ethanol and 80% water. RAD001 was obtained from Novartis Pharma AG (Basel, Switzerland) and was diluted in double-distilled water. Drug were administered one day post cell inoculation at the following doses: RAD001 (4 mg/kg/day, gavage); CI-1040, (150 mg/kg/day gavage, twice a day)
Subcutaneous tumors were removed from animals upon sacrifice. Tumor weights were recorded, and tumor size was measured in two dimensions with calipers.
ELT3 cells were inoculated subcutaneously into the flanks of ovariectomized CB17-SCID mice, which were supplemented 1 week before with either placebo or E2 pellets (2.5 mg, 90-day release). Tumors arose in 100% of both estrogen and placebo-treated mice. […] The proliferative potential of ELT3 cells in vivo was examined using Ki-67 immunoreactivity.

ribosomal protein S6 = experiment: Immunoblot of phosphorylated ribosomal protein S6 in ELT3 cells; type: cell-based, rat; settings: E2 stimulation
Method: as §1, §2

ELT3 cells [6] = experiment: ELT3 cell proliferation in response to E2, 3H-thymidine incorporation; type: cell-based, rat; settings: day 5, E2 treatment vs control
Method: as §1
as §4, with “counting. […]” for “counting.”

[7] = female mice, subset n=4 with primary tumors of similar size
[8] = RAD001 4 mg/kg/day by gavage, 5 days per week, in the presence of estrogen or placebo

17β-estriadiol [E2]
time to increased phosphorylation of C-Raf at Ser-338 (C-Raf): ≤ 2 min | DNA fragmentation (ELT3 cells [1]; 10 nM E2, PolyHEMA, at 1 and 24 h, ELISA): significantly reduced | caspase-3 cleavage (ELT3 cells [1]; 10 nM E2, PolyHEMA, at 6, 16 and 24 h): reduced | 3H-thymidine incorporation after replating (ELT3 cells [1]; 24 h on PolyHEMA, 24 h after replating on adherent plates): significant increase | accumulation of Bim (ELT3 cells [1]; after 1 h in detachment conditions): decreased | phosphorylation of S6K and S6 (ELT3 cells [1]; detachment conditions, E2 stimulation): did not change | time to induced phosphorylation of p42/44 MAPK (p42/44 MAPK [2]; 10 nM E2): ≤ 15 min | time to nuclear translocation of phospho-MAPK (p42/44 MAPK [2]; nuclear and cytoplasmic fractions): ≤ 5 min | percentage of cells with primarily nuclear phospho-MAPK (p42/44 MAPK [3]): 65% | bioluminescence in chest regions, higher than placebo (ELT3-luciferase cells; 3 h post-cell injection): 2 fold | bioluminescence in chest regions, higher than placebo (ELT3-luciferase cells; 24 h post-cell injection): 5 fold | increase in circulating cells (ELT3 cells [4]; 6 h after i.v. injection of 2×10^5 ELT3 cells, vs placebo): 2.5 fold | increase in lung seeding of ELT3 cells (ELT3 cells [4]; lungs 24 h after i.v. injection, vs placebo): 2 fold | amount of circulating tumor cell DNA vs placebo (ELT3 cells [4]; xenograft mice, 7 weeks post-cell inoculation, tumors of similar size): striking increase | average number of pulmonary metastases, size-matched subset [5, 7]: 6 metastases/mouse | mice that developed pulmonary metastases, size-matched subset [5, 7]: Three | primary tumor size, size-matched subset [5, 7]: 198±20 mm^2 | tumor size relative to placebo-treated animals ([5]; male mice, 8 weeks post-cell inoculation): 2.9 fold | average number of pulmonary metastases ([5]; male mice, 8 weeks post-inoculation): 14 metastases/mouse | mice with pulmonary metastases ([5]; male mice, 8 weeks post-inoculation, 10 of 10): 100% | mice in which tumors arose ([5]; ovariectomized female CB17-SCID mice, E2 pellets 2.5 mg 90-day release): 100% | average number of pulmonary metastases ([5]; ovariectomized female mice): 15 metastases/mouse | mice with pulmonary metastases ([5]; ovariectomized female mice, 5 of 9): 56% | mean tumor area ([5]; ovariectomized female mice, post-inoculation week 8): 287±43 mm^2 | number of Ki-67 positive cells in tumors, higher than placebo ([5]; xenograft tumors, female mice, vs placebo-treated tumors): 17% | mTOR activation as measured by ribosomal protein S6 phosphorylation (ribosomal protein S6): does not affect | increase in 3H-thymidine incorporation (ELT3 cells [6]): 2.8 fold

CO[C@H]1C[C@@H]2CC[C@@H](C)[C@@](O)(O2)C(=O)C(=O)N2CCCC[C@H]2C(=O)O[C@H]([C@H](C)C[C@@H]2CC[C@@H](OCCO)[C@H](OC)C2)CC(=O)[C@H](C)/C=C(\C)[C@@H](O)[C@@H](OC)C(=O)[C@H](C)C[C@H](C)/C=C/C=C/C=C/1C [RAD001]
lung metastasis [5, 8]: completely blocked | primary tumor development [5, 8]: completely blocked

COc1cccc(-c2cc(=O)c3ccccc3o2)c1N [PD98059]
phosphorylation of S6K (ELT3 cells [1]; 1 h after detachment): decreased | E2-enhanced survival (3H-thymidine incorporation after replating) (ELT3 cells [1]; 24 h on PolyHEMA then replated, PD98059 treatment): blocked | estrogen's inhibition of Bim accumulation and caspase-3 cleavage (ELT3 cells [1]; preincubation, after 4 h in detachment conditions): partially blocked | E2-induced phosphorylation of p42/44 MAPK (p42/44 MAPK [2]; pretreatment with PD98059 (50 μM)): blocked

O=C(NOCC1CC1)c1ccc(F)c(F)c1Nc1ccc(I)cc1Cl [CI-1040, 2-(2-chloro-4-iodo-phenylamino)-N-cyclopropylmethoxy-3,4-difluoro-benzamide]
decrease of bioluminescence in chest regions, E2 plus CI-1040 vs E2 (ELT3-luciferase cells; 5 h post-cell injection): 55% | reduction of bioluminescent signals in ex vivo lungs, E2 plus CI-1040 vs E2 (ELT3-luciferase cells; 60 h post-cell injection): 96% | reduction of levels of circulating ELT3 cells in the blood (ELT3 cells [4]; E2-treated xenograft animals, CI-1040 150 mg/kg/day by gavage): 84% | tumor formation ([5]; CI-1040 150 mg/kg/day by gavage, twice a day, not statistically significant): delayed | reduction of the size of primary tumors ([5]; E2 animals, CI-1040 150 mg/kg/day by gavage, not statistically significant): 25% | lung metastases ([5]; mice treated with E2 plus CI-1040 150 mg/kg/day by gavage, 150 mg/kg/day): no lung metastases were detected; also recorded: completely blocked
